The values below come from article PMC9032233, “2-{5-[(Z,2Z)-2-Chloro-3-(4-nitrophenyl)-2-propenylidene]-4-oxo-2-thioxothiazolidin-3-yl}-3-methylbutanoic Acid as a Potential Anti-Breast Cancer Molecule” (International Journal of Molecular Sciences, 2022).

The subject of data set [1] is LC3A. Put plainly: LC3A concentration in MDA-MB-231 cell lysates (ELISA). It counts as cell-based, human. The settings on record: MDA-MB-231, 5 mM, 24 h; control 2.965 ng/mL. The protocol:
(§1) High sensitivity assay kits (EIAab Science Co., Ltd., Wuhan, China; Abcam plc., Cambridge, United Kingdom; Cloud-Clone Corp., Katy, TX, USA) were used to determine the concentrations of selected proteins in cell lysates […] In brief, after trypsinization, cells were washed thrice with cold PBS and centrifuged at 1000× g for 5 min at 4 °C. Then, cells (1.5 × 10^6) were suspended in lysis buffer for whole-cell lysates. After the second centrifugation, cellular supernatants were frozen immediately at −70 °C. Untreated cancer cells were taken as a control.
(§2) The microtiter plates provided in the kits were pre-coated with an antibody specific to the analyzed antigen. The tests were carried out according to the manufacturer’s protocols.
For orientation: ELISA stands for enzyme-linked immunosorbent assay.

For data set [2], the system named is LC3B. Kind of data set: LC3B concentration in MDA-MB-231 cell lysates (ELISA). The following applies: MDA-MB-231, 5 mM, 24 h; control 1.504 ng/mL. It counts as cell-based, human. The protocol: as §1, §2
Data set [3] has as its system Beclin-1. Put plainly: Beclin-1 concentration in MDA-MB-231 cell lysates (ELISA). It counts as cell-based, human. Details: unit of the concentration uncertain. The following applies: MDA-MB-231, 5 (unit uncertain), 24 h; control 3.605 ng/mL. Here is the method: as §1, §2
For data set [4], the system named is Beclin-1. Kind of data set: Beclin-1 concentration in MCF-7 cell lysates (ELISA). Type of data set: cell-based, human. The settings on record: 5 mM, 24 h, control 7.965 ng/mL. The protocol:
as §1, §2

Data set [5] deals with LC3B. Kind of data set: LC3B concentration in MCF-7 cell lysates (ELISA). It counts as cell-based, human. The settings on record: MCF-7, 5 mM, 24 h; control 1.194 ng/mL. The protocol: as §1, §2
Data set [6] concerns LC3A. Kind of data set: LC3A concentration in MCF-7 cell lysates (ELISA). It counts as cell-based, human. The following applies: MCF-7, 5 mM, 24 h; control 6.726 ng/mL. Here is the method: as §1, §2
A short description of data set [7]: Parallel artificial membrane permeability assay (PAMPA). Type of data set: in vitro ADME. The following applies: 200 µM in PBS pH 7.4, 5 h at RT, read-out: permeability coefficient Pe. The protocol: All in vitro assays used for the evaluation of Les-3331 ADME-Tox parameters were described previously. In brief, for the determination of permeability, Pre-coated PAMPA Plate System Gentest^TM was purchased from Corning (Tewksbury, MA, USA). […] PAMPA plates with compounds added to the donor wells were incubated for 5 h at RT. UPLC-MS Waters ACQUITY—TQD system with the TQ Detector (Waters, Milford, MI, USA) was used next for determination of compounds concentrations in donor and acceptor wells, which were required for calculation of permeability coefficient Pe according to formulas provided by the manufacturer.
Background: PAMPA measures passive passage across an artificial lipid membrane.

Each structure is given as a SMILES string.

For `Cn1cnc(N)c2ncnc1-2` [3-MA, 3-Methyladenine], the LC3A concentration with LC3A [1] was 0.994 ng/mL; with LC3A [6] it was 4.423 ng/mL. In addition, the results for the LC3B concentration with LC3B [2] and with LC3B [5] were 0.628 ng/mL and 0.664 ng/mL, respectively. Besides, the Beclin-1 concentration is 2.399 ng/mL in the data set on Beclin-1 [3] and 6.344 ng/mL with Beclin-1 [4].
Turning to `Cn1c(=O)c2c(ncn2C)n(C)c1=O` [caffeine, reference compound], the Papp at 5 h, 200 µM in data set [7] is 6.58 ×10⁻⁶ cm/s.
